These results are taken from the supplement of paper PMC10307832.

Common to all, as to assay: relative viability (nuclei count vs DMSO), 5 days (fraction); higher = more cells survive
Compound in the test “AZ505 + Alpelisib”: C1CCC(CC1)N(CCNCCC2=C3C(=C(C=C2)O)NC(=O)CO3)C(=O)CCNCCC4=CC(=C(C=C4)Cl)Cl [AZ505] + Cc1nc(NC(=O)N2CCC[C@H]2C(N)=O)sc1-c1ccnc(C(C)(C)C(F)(F)F)c1 [Alpelisib] (partner 2 µM)
Summed up: (§1)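 Lung cancer cell lines were seeded in 1536-well plates and dosed by pin tool the next day, with either a single drug or a fixed anchor-drug dose combined with five library-drug doses (not always all listed) spaced in √10 steps. Five days later, one step fixed the cells and stained their nuclei (final 0.05% Triton X-100, 1% formaldehyde, 1 ug/ml Hoechst), and nuclei were counted on 4× images. Relative viability is the nuclei count in treated wells divided by the count in vehicle wells, and each value is the median of duplicate plates.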

Compound in the test “Dactolisib + Pictilisib”: Cn1c(=O)n(-c2ccc(C(C)(C)C#N)cc2)c2c3cc(-c4cnc5ccccc5c4)ccc3ncc21 [Dactolisib] + CS(=O)(=O)N1CCN(Cc2cc3nc(-c4cccc5[nH]ncc45)nc(N4CCOCC4)c3s2)CC1 [Pictilisib] (partner 1 µM)
In a few lines: as §1

Compound in the test “Dactolisib + Pemetrexed”: Cn1c(=O)n(-c2ccc(C(C)(C)C#N)cc2)c2c3cc(-c4cnc5ccccc5c4)ccc3ncc21 [Dactolisib] + Nc1nc2[nH]cc(CCc3ccc(C(=O)N[C@@H](CCC(=O)O)C(=O)O)cc3)c2c(=O)[nH]1 [Pemetrexed] (partner 0.2 µM)
In a few lines: as §1

Compound in the test “AZ505 + Palbociclib”: C1CCC(CC1)N(CCNCCC2=C3C(=C(C=C2)O)NC(=O)CO3)C(=O)CCNCCC4=CC(=C(C=C4)Cl)Cl [AZ505] + CC(=O)c1c(C)c2cnc(Nc3ccc(N4CCNCC4)cn3)nc2n(C2CCCC2)c1=O [Palbociclib] (partner 0.5 µM)
In a few lines: as §1

For NCI-H1395, the relative viability in the test with AZ505 + Alpelisib (first compound 0.08 µM) was 1.1; in the test with AZ505 + Alpelisib (first compound 0.253 µM) it was 1.3; with AZ505 + Alpelisib (first compound 0.8 µM) it was 0.935; with AZ505 + Alpelisib (first compound 2.53 µM) it was 1.11; with AZ505 + Alpelisib (first compound 8 µM), 1.16; in the test with Dactolisib + Pictilisib (first compound 0.002 µM), 0.64. Also, the relative viability in the test with Dactolisib + Pictilisib (first compound 0.006325 µM) is 0.611; in the test with Dactolisib + Pictilisib (first compound 0.02 µM) it was 0.569; with Dactolisib + Pictilisib (first compound 0.06325 µM), 0.525; with Dactolisib + Pictilisib (first compound 0.2 µM), 0.446; in the test with Dactolisib + Pemetrexed (first compound 0.002 µM), 0.537; with Dactolisib + Pemetrexed (first compound 0.006325 µM), 0.883. Moreover, the relative viability is 0.705 with Dactolisib + Pemetrexed (first compound 0.02 µM); 0.722 with Dactolisib + Pemetrexed (first compound 0.06325 µM); 0.521 with Dactolisib + Pemetrexed (first compound 0.2 µM); 0.593 with AZ505 + Palbociclib (first compound 0.08 µM); 0.638 with AZ505 + Palbociclib (first compound 0.8 µM); 0.661 with AZ505 + Palbociclib (first compound 2.53 µM). Also, in the test with AZ505 + Palbociclib (first compound 8 µM), the relative viability is 0.686.
As for NCI-H358, the relative viability in the test with AZ505 + Alpelisib (first compound 0.08 µM) worked out at 0.699; with AZ505 + Alpelisib (first compound 0.253 µM) it was 0.741; with AZ505 + Alpelisib (first compound 0.8 µM), 0.859; with AZ505 + Alpelisib (first compound 2.53 µM), 0.729; with AZ505 + Alpelisib (first compound 8 µM), 0.795; in the test with Dactolisib + Pictilisib (first compound 0.002 µM), 0.345. Further, the relative viability in the test with Dactolisib + Pictilisib (first compound 0.006325 µM) was 0.302; in the test with Dactolisib + Pictilisib (first compound 0.02 µM), 0.337; with Dactolisib + Pictilisib (first compound 0.06325 µM), 0.196; with Dactolisib + Pictilisib (first compound 0.2 µM), 0.215; with Dactolisib + Pemetrexed (first compound 0.002 µM) it was 0.164; in the test with Dactolisib + Pemetrexed (first compound 0.006325 µM) it was 0.164. Moreover, the relative viability with Dactolisib + Pemetrexed (first compound 0.02 µM) was 0.159; with Dactolisib + Pemetrexed (first compound 0.06325 µM), 0.134; with Dactolisib + Pemetrexed (first compound 0.2 µM) it was 0.14; in the test with AZ505 + Palbociclib (first compound 0.08 µM) it was 0.122; with AZ505 + Palbociclib (first compound 0.253 µM), 0.156; with AZ505 + Palbociclib (first compound 0.8 µM), 0.153. Further, the relative viability in the test with AZ505 + Palbociclib (first compound 2.53 µM) came out at 0.139; in the test with AZ505 + Palbociclib (first compound 8 µM) it was 0.151.
Consider NCI-H838, for which the relative viability with AZ505 + Alpelisib (first compound 0.08 µM) was determined as 0.988; with AZ505 + Alpelisib (first compound 0.253 µM) it was 0.966; with AZ505 + Alpelisib (first compound 0.8 µM) it was 0.943; with AZ505 + Alpelisib (first compound 2.53 µM) it was 0.928; in the test with AZ505 + Alpelisib (first compound 8 µM) it was 1.01; in the test with Dactolisib + Pictilisib (first compound 0.002 µM) it was 0.351. Besides, the relative viability with Dactolisib + Pictilisib (first compound 0.006325 µM) was found to be 0.302; in the test with Dactolisib + Pictilisib (first compound 0.02 µM), 0.239; in the test with Dactolisib + Pictilisib (first compound 0.06325 µM) it was 0.204; with Dactolisib + Pictilisib (first compound 0.2 µM), 0.218; with Dactolisib + Pemetrexed (first compound 0.002 µM), 0.25; with Dactolisib + Pemetrexed (first compound 0.006325 µM), 0.227. The relative viability with Dactolisib + Pemetrexed (first compound 0.02 µM) was determined as 0.264; with Dactolisib + Pemetrexed (first compound 0.06325 µM) it was 0.203; in the test with Dactolisib + Pemetrexed (first compound 0.2 µM), 0.165; with AZ505 + Palbociclib (first compound 0.08 µM) it was 0.236; in the test with AZ505 + Palbociclib (first compound 0.253 µM) it was 0.191; with AZ505 + Palbociclib (first compound 0.8 µM) it was 0.195. Moreover, the figures for the relative viability with AZ505 + Palbociclib (first compound 2.53 µM) and in the test with AZ505 + Palbociclib (first compound 8 µM) were 0.216 and 0.195, respectively.
CAL-12T: the relative viability with AZ505 + Alpelisib (first compound 0.08 µM) was found to be 1.05; in the test with AZ505 + Alpelisib (first compound 0.253 µM), 1.23; with AZ505 + Alpelisib (first compound 0.8 µM), 1.23; with AZ505 + Alpelisib (first compound 2.53 µM) it was 1.24; with AZ505 + Alpelisib (first compound 8 µM), 1.33; in the test with Dactolisib + Pictilisib (first compound 0.002 µM), 0.407. Moreover, the relative viability with Dactolisib + Pictilisib (first compound 0.006325 µM) was determined as 0.408; with Dactolisib + Pictilisib (first compound 0.02 µM), 0.358; in the test with Dactolisib + Pictilisib (first compound 0.06325 µM), 0.251; with Dactolisib + Pictilisib (first compound 0.2 µM), 0.254; with Dactolisib + Pemetrexed (first compound 0.002 µM) it was 1.23; in the test with Dactolisib + Pemetrexed (first compound 0.006325 µM), 1.17. Besides, the relative viability was determined as 1.17 in the test with Dactolisib + Pemetrexed (first compound 0.02 µM); 0.412 with Dactolisib + Pemetrexed (first compound 0.06325 µM); 0.325 in the test with Dactolisib + Pemetrexed (first compound 0.2 µM); 0.324 in the test with AZ505 + Palbociclib (first compound 0.08 µM); 0.437 in the test with AZ505 + Palbociclib (first compound 0.253 µM); 0.372 in the test with AZ505 + Palbociclib (first compound 0.8 µM). Further, the relative viability in the test with AZ505 + Palbociclib (first compound 2.53 µM) came to 0.477; in the test with AZ505 + Palbociclib (first compound 8 µM), 0.618.
